Reference: publication PMC10227015, “From a drug repositioning to a structure-based drug design approach to tackle acute lymphoblastic leukemia” (Nature Communications, 2023)
Like-named read-outs stand apart in the source and are kept apart here.

Legend:
CCRF-CEM cell line [1] = experiment: CCRF-CEM proliferation, compound alone (nonspecific toxicity); format: cell-based, human; conditions: compound 10 µM alone, 72 h
Protocol: (§1) The dCK cellular assay was set up to assess the ability to inhibit dCK activity in a cellular model. The model was developed with a T-cell acute lymphoblastic leukemia cell line (CCRF-CEM), because of its high dependence on the SP, thus on dCK activity. Cellular assays were performed to assess the inhibition of cell proliferation under two conditions: (i) in the presence of the compound alone to determine the nonspecific effect on cells, independent of dCK (nonspecific toxicity) and (ii) in the presence of an inhibitor of the DNP to determine the ability of compounds to inhibit dCK and decrease tumor proliferation (activity on dCK). The inhibitor of the DNP chosen for the experiments was thymidine (dT), a physiological inhibitor of ribonucleotide reductase which arrests cell proliferation in phase S. The dTTP produced via thymidine kinase from dT acts as a RNR inhibitor by an allosteric regulation of the R1 subunit. The addition of the nucleoside deoxycytidine (dC) in the medium allows the rescue of cell proliferation by passing only through the salvage pathway, mediated by dCK. dC needs to be added exogenously to mimic physiological concentrations because it is not present in the cell culture medium, on the contrary to mouse model, in which it is naturally present in the serum. Therefore, cell proliferation under these conditions (+dT +dC) is dCK dependent and it is possible to determine the IC50 of dCK inhibitors on the inhibition of cell proliferation. Results are expressed as % cell proliferation relative to the control with DMSO.
(§2) The amount of reduced dye formed by metabolically active cells was quantified by its fluorescence measured at 560 nm (excitation) and 590 nm (emission) in a microplate reader (CLARIOstar, BMG Labtech). A blank well without cells was used as a background control. Each experiment was performed at least three times (with technical triplicates) and data are presented as the mean ± SD.

dCK-C3S-S74E [2] = experiment: Enzymatic assay (PK/LDH coupled), dC phosphorylation by dCK in the presence of UTP; format: biochemical, human; conditions: presence of UTP
Protocol: (§3) For enzymatic assays, cells were re-suspended in 20 mM TRIS, pH 8 500 mM NaCl, 0.1% BRIJ-35 and 5% glycerol buffer and one EDTA free anti-protease tablet was added (Roche). After sonication and centrifugation (30,000 × g), the supernatant was loaded on a 5 ml HisTrap FF column (GE healthcare) pre-equilibrated with 20 mM TRIS, pH 8, 500 mM NaCl, 0.01% BRIJ-35 and 5% glycerol buffer. The protein was then eluted by the same buffer containing 250 mM imidazole after a wash containing 25 mM imidazole. The eluted fraction was applied on a HiPrep 26/10 desalting column (GE healthcare) pre-equilibrated with 20 mM TRIS, pH 8, 500 mM NaCl, 5% glycerol and 0.01% BRIJ-35 buffer. Finally, protein in a 20% glycerol buffer was flash frozen in liquid nitrogen and stored at −80 °C.
Kinetic analyses were performed using a spectrophotometric continuous enzymatic-coupled assay using pyruvate kinase (PK) and lactate dehydrogenase (LDH). […] UTP is the physiological dCK-phosphate donor[46] and it was used to determine activation versus inhibition behavior. ATP was used to calculate IC50 values, as it allows the analysis of a dose response curve. The PK/LDH coupled assay is based on the conversion of phosphoenolpyruvate (PEP) and UDP/ADP to pyruvate and UTP/ATP by PK and the subsequent conversion of pyruvate to lactate by LDH. The latter step requires NADH, which is oxidized to NAD^+. NADH is fluorescent (excitation at 337 nm and emission at 460 nm), but not NAD^+. Thus, the measurement of fluorescent decrease at 460 nm is a measure of kinase activity. dCK experiments were performed in a buffer containing 50 mM HEPES, pH 7.5, 5 mM MgCl2, 1 mM DTT, and 100 mM KCl. Buffer was supplemented with PK (0.01 U/µl), LDH (0.02 U/µl), PEP (1 mM), NADH (300 µM) and compounds at varying concentrations. For UTP assays, protein concentration was 2 μM, substrate 200 µM (dC), and UTP 1 mM. For ATP assays, protein concentration was 100 nM (and 50 nM when indicated), substrate 100 µM (dC), and ATP 1 mM. All measurements were performed on a microplate reader Pherastar FS (BMG Labtech). All assays were performed in triplicate and each experiment was performed at least twice. The data are presented as mean ± SD. The results were plotted as kinetics and the velocity was determined for each condition as the slope of the linear range of the curve. For each compound concentration, the velocity of the reaction (according to V = d[P]/dt) was normalized with respect to the drug free control and velocity ratios were compared. IC50 values corresponding to enzymatic inhibition in ATP were calculated by nonlinear regression curves using GraphPad Prism software 9.4.0.

dCK-C3S-S74E [3] = experiment: Enzymatic assay (PK/LDH coupled), dC phosphorylation by dCK in the presence of ATP; format: biochemical, human; conditions: presence of ATP, read-out: ENZYMATIC ASSAY IC50
Protocol: as §3
(§4) Kinetic analyses were performed using a spectrophotometric continuous enzymatic-coupled assay using pyruvate kinase (PK) and lactate dehydrogenase (LDH). Analysis of the effect of compounds on dCK-C3S-S74E activity was performed using dC as substrate and UTP/ATP as phosphate donors. UTP is the physiological dCK-phosphate donor[46] and it was used to determine activation versus inhibition behavior. ATP was used to calculate IC50 values, as it allows the analysis of a dose response curve. The PK/LDH coupled assay is based on the conversion of phosphoenolpyruvate (PEP) and UDP/ADP to pyruvate and UTP/ATP by PK and the subsequent conversion of pyruvate to lactate by LDH. The latter step requires NADH, which is oxidized to NAD^+. NADH is fluorescent (excitation at 337 nm and emission at 460 nm), but not NAD^+. Thus, the measurement of fluorescent decrease at 460 nm is a measure of kinase activity. dCK experiments were performed in a buffer containing 50 mM HEPES, pH 7.5, 5 mM MgCl2, 1 mM DTT, and 100 mM KCl. Buffer was supplemented with PK (0.01 U/µl), LDH (0.02 U/µl), PEP (1 mM), NADH (300 µM) and compounds at varying concentrations. For UTP assays, protein concentration was 2 μM, substrate 200 µM (dC), and UTP 1 mM. For ATP assays, protein concentration was 100 nM (and 50 nM when indicated), substrate 100 µM (dC), and ATP 1 mM. All measurements were performed on a microplate reader Pherastar FS (BMG Labtech). All assays were performed in triplicate and each experiment was performed at least twice. The data are presented as mean ± SD. The results were plotted as kinetics and the velocity was determined for each condition as the slope of the linear range of the curve. For each compound concentration, the velocity of the reaction (according to V = d[P]/dt) was normalized with respect to the drug free control and velocity ratios were compared. IC50 values corresponding to enzymatic inhibition in ATP were calculated by nonlinear regression curves using GraphPad Prism software 9.4.0.

CCRF-CEM cell line [4] = experiment: dCK cellular assay: CCRF-CEM proliferation in the presence of dT and dC; format: cell-based, human; conditions: for IC50: Homo sapiens
Protocol: as §1, §2

dCK-C3S-S74E [5] = experiment: Thermal shift assay (TSA); conditions: for THERMAL SHIFT ASSAY +Tm (°): mean ± SD; for ΔTm (º) (TSA): Figure 2a, mean
Excerpt: BL21 pRIL Escherichia coli cells were transformed with dCK-plasmids (dCK-C4S-S74E (for crystallization assays) and dCK-C3S-S74E (for TSA, enzymatic and ITC assays)). […] Protein dCK-C3S-S74E used for other assays contained only three mutated cysteines. The S74E mutation mimics the phosphorylated state of this serine, which favors the open conformation of the enzyme, making it competent for nucleoside binding[45] to evaluate the binding affinity with compounds.
For binding assays (TSA, ITC and crystallography) cells were re-suspended in 50 mM TRIS, pH 8, 500 mM NaCl, 30 mM imidazole and 10% glycerol buffer and one EDTA free anti-protease tablet was added (Roche). After sonication and centrifugation (30,000 × g), the supernatant was loaded on a 5 ml HisTrap FF column (GE healthcare) pre-equilibrated with resuspension buffer. Protein was then eluted by resuspension buffer containing 500 mM imidazole. Protein eluted fractions were mixed and concentrated. Protein was further purified by size exclusion chromatography (superdex 200 16/600, GE healthcare) in 20 mM HEPES, pH 7.5, and 200 mM NaCl before concentration to 30 mg/ml and storage at −80 °C.
Thermal shift assay (TSA) experiments were performed in 384-well PCR white plates in the assay buffer containing 20 mM HEPES, pH 7.5 and 200 mM NaCl. […] Plates were centrifuged at 200 × g for 2 min at 4 °C. […] Raw fluorescence data were treated, and the melting temperatures (Tm) were calculated using CFX Manager 3.1 software (Bio-Rad). ΔTm represents the difference in Tm between the protein in the presence of compound and the protein alone (both at 2% DMSO). Each experiment was performed at least twice (with technical triplicates) and data are presented as the mean ± SD.

dCK-C3S-S74E [6] = molecular target: T1, dCK-C3S-S74E (Homo sapiens, UniProt P27707, form not given/S74E); experiment: Thermal shift assay (TSA)
dCK-C3S-S74E [7] = molecular target: T1, dCK-C3S-S74E; experiment: Enzymatic assay (PK/LDH coupled), dC phosphorylation by dCK in the presence of ATP; format: biochemical; conditions: ATP; read-out: enzymatic inhibition IC50
Protocol: as §3, §4

[8] = read-out: dCK CELLULAR ASSAY IC50 (nM), CCRF-CEM, 200 µM dT and 1 µM dC, read-out: dCK […] ASSAY IC50
[9] = Figure 2a, CCRF-CEM cell line, mean, read-out: IC50 (nM) (Cell Prolif)

T1 sequence (P27707 whole entry S74E, form open): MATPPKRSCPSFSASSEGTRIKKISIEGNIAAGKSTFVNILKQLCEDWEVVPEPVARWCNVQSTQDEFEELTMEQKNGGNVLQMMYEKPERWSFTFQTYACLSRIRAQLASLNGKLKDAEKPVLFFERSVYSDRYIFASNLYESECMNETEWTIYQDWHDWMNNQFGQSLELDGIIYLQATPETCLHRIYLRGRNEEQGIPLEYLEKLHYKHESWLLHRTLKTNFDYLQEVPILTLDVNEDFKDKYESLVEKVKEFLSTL
T1 sequence (P27707 whole entry S74E, form open): as above

SMILES | ENZYMATIC ASSAY (Activation/Inhibition) (dCK-C3S-S74E [2]) | THERMAL SHIFT ASSAY +Tm (°) (dCK-C3S-S74E [5]) | IC50 (dCK-C3S-S74E [3]; [dCK] = 50 nM (footnote A)) | IC50 (CCRF-CEM cell line [4]; [9]) | ΔTm (º) (TSA) (dCK-C3S-S74E [5]) | further results
Cc1ccc(NC(=O)c2ccc(CN3CCN(C)CC3)cc2)cc1Nc1nc(-c2cccnc2)cs1 [Masitinib, masitinib, reference compound] |  |  |  |  |  | Cell proliferation of the CCRF-CEM cell line Mean (% prolif) (CCRF-CEM cell line [1]): 87.5%
CCCN(c1nc(-c2nc(N)cc(N)n2)cs1)c1cc(-c2ccc(CCCN3CCN(C)CC3)cc2)ccc1C [OR0601] | I | 20.8 ± 0.7 ° |  |  |  | IC50 (dCK-C3S-S74E [3]; [dCK] = 100 nM): 137 ± 3 nM; IC50 (CCRF-CEM cell line [4]; [8]): 420 ± 83 nM
Cc1ccc(-c2ccc(CCN3CCN(C)CC3)cc2)cc1N(CC(C)C)c1nc(-c2nc(N)cc(N)n2)cs1 [OR0603] | I | 21.3 ± 0.8 ° | 149 ± 44 nM |  |  | IC50 (CCRF-CEM cell line [4]; [8]): 255 ± 70 nM
Cc1ccc(-c2ccc(OCCN3CCN(C)CC3)nc2)cc1N(CC(C)C)c1nc(-c2nc(N)cc(N)n2)cs1 [OR0608] | I | 21.0 ± 0.5 ° | 106 ± 23 nM | 40 nM | 21.03 º | 
Cc1ccc(-c2ccc(CCN3CCN(C)CC3)cc2)cc1N(CCCN)c1nc(-c2nc(N)cc(N)n2)cs1 [OR0611] | A/I | 14.7 ± 0.5 ° | 498 ± 119 nM | 11800 nM | 14.67 º | 
CCCN(c1nc(-c2nc(N)cc(N)n2)cs1)c1cc(-c2ccc(C(=O)N3CCN(C)CC3)nc2)ccc1C [OR0612] | I | 16.6 ± 0.8 ° | 195 ± 16 nM | 1000 nM | 16.58 º | 
Cc1ccc(-c2ccc(S(=O)(=O)N3CCN(C)CC3)cc2)cc1Nc1nc(-c2nc(N)cc(N)n2)cs1 [OR0614] | A/I | 18.1 ± 0.8 ° | 233 ± 83 nM | 10000 nM | 18.1 º | 
CCCN(c1nc(-c2nc(N)cc(N)n2)cs1)c1cc(-c2ccc(S(N)(=O)=O)cc2)ccc1C [OR0615] | I | 17.5 ± 0.7 ° | 88 ± 68 nM | 411 nM | 17.5 º | 
CCCN(c1nc(-c2nc(N)cc(N)n2)cs1)c1cc(-c2ccc(S(=O)(=O)N3CCOCC3)cc2)ccc1C [OR0617] | I | 18.3 ± 1.1 ° | 181 ± 15 nM | 78 nM | 18.29 º | 
CCCN(c1nc(-c2nc(N)cc(N)n2)cs1)c1cc(-c2ccc(S(=O)(=O)N(C)C)cc2)ccc1C [OR0618] | I | 18.8 ± 0.6 ° | 139 ± 12 nM | 80 nM | 18.79 º | 
CCCN(c1nc(-c2nc(N)cc(N)n2)cs1)c1cc(-c2ccc(S(=O)(=O)N3CCN(CC(=O)[O-])CC3)cc2)ccc1C.[Na+] [OR0649] |  |  |  |  |  | IC50 (CCRF-CEM cell line [4]; CCRF-CEM, read-out: IC50 (nM) (Cell Prolif)): 13400 nM; ΔTm (º) (TSA) (dCK-C3S-S74E [6]; Figure 2a, mean): 17.61 º
CCCN(c1nc(-c2cccnc2)cs1)c1cc(-c2ccc(S(=O)(=O)N3CCN(C)CC3)cc2)ccc1C [OR0659] |  |  |  |  |  | IC50 (dCK-C3S-S74E [7]): > 100000 nM; inhibition of cell proliferation in combination with dT (CCRF-CEM cell line [4]; CCRF-CEM, presence of dT + dC): unable to inhibit cellular proliferation; ΔTm, dCK thermal stabilization (TSA) (dCK-C3S-S74E [6]; 5 μM protein, 50 μM compound): 6.3 °C
